# Results from ChEMBL document CHEMBL1201862, “PubChem BioAssay data set” (2004).
# Active and inactive are the calls of the source.
# Tests used:
# Hexokinase-1 = Hexokinase-1 (Homo sapiens, UniProt P19367); assay: hexokinase 1 activators, dose response, selectivity assay for HKDC1 activator project, biochemical (AID 504762); format: functional
# Hexokinase HKDC1 = biological target: T1, Hexokinase HKDC1 (Homo sapiens, UniProt Q2TB90); assay: HKDC1 hexokinase activators, dose response, biochemical, W721R variant (AID 504730); format: functional
# T1 sequence (Q2TB90 whole entry): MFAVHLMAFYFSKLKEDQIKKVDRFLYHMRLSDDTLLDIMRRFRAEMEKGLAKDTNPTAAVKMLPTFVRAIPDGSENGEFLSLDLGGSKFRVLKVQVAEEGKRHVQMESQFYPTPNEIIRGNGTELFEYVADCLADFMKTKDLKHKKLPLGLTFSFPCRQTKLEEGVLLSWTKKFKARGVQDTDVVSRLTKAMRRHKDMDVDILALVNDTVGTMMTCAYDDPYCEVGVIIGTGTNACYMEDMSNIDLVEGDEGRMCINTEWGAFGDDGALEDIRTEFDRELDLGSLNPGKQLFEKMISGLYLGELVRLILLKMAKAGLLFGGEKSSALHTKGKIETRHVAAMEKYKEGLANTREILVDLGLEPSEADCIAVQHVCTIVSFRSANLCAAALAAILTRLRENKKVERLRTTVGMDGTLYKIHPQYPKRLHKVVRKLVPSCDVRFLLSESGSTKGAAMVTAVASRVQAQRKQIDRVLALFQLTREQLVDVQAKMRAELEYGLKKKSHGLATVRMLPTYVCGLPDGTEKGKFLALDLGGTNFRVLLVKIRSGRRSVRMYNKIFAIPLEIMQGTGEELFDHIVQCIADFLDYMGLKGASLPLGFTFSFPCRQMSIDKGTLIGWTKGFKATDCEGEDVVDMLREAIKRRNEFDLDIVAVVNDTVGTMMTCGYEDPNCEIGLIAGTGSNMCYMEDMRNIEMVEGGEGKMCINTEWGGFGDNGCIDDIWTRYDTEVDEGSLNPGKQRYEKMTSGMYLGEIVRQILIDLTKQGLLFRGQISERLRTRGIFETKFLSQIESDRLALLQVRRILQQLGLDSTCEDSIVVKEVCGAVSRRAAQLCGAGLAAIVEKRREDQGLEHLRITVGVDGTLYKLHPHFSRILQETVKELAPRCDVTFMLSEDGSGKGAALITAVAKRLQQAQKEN
# [1] = biological target: Glucose-6-phosphate 1-dehydrogenase (Homo sapiens, UniProt P11413); assay: human G6PD enzyme inhibitors, dose response, selectivity assay for P. falciparum G6PD inhibitor project, biochemical, fluorescence (AID 504792); format: functional
# Phospholipase A2 = Phospholipase A2 (Homo sapiens, UniProt P04054); format: functional;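 note: confirmatory dose-response counterscreen on phospholipase A2, testing hits that came from an ultra-high-throughput screen for ATG4B inhibitors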
# [2] = biological target: Dual specificity protein phosphatase 3 (Homo sapiens, UniProt P51452); assay: SAR VHR1 Fluorescent Assay for In Vitro dose response studies. [Related pubchem assays (depositor defined):AID1654, AID1661, AID1878, AID1992, AID2004, AID2070, AID2085]; format: functional
# [3] = biological target: T2, Tyrosine-protein phosphatase non-receptor type 7 (Homo sapiens, UniProt P35236); format: functional
# T2 sequence (P35236 whole entry): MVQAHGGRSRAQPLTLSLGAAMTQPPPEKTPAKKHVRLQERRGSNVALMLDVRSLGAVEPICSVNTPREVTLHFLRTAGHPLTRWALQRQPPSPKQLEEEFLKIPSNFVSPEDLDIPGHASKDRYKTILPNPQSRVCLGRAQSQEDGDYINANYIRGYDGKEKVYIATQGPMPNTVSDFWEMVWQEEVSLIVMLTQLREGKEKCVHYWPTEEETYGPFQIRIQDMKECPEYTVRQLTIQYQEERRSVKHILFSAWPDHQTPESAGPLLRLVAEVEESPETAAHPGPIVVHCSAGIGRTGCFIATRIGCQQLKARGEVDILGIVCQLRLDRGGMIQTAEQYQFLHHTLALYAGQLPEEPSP
# [4] = biological target: T3, Dual specificity protein phosphatase 6 (Rattus norvegicus, UniProt Q64346); format: functional
# T3 sequence (Q64346 whole entry): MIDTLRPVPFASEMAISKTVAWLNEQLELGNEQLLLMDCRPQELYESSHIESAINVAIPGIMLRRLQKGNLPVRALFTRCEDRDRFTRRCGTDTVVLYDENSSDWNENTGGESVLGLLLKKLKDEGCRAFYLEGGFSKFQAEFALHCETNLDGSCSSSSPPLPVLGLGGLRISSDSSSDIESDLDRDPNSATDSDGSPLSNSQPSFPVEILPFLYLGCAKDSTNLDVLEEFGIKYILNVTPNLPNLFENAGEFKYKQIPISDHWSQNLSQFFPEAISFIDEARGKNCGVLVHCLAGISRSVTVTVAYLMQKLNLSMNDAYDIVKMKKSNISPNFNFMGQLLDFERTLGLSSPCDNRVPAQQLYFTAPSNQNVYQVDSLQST
# Ephrin type-A receptor 4 = Ephrin type-A receptor 4 (Mus musculus, UniProt Q03137); assay: inhibitors of EphA4 binding to KYL peptide, primary screen, biochemical, colorimetric, mouse EphA4 (AID 689); format: functional
# Cysteine protease ATG4B = biological target: T4, Cysteine protease ATG4B (Homo sapiens, UniProt Q9Y4P1); format: functional;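 note: Fluorescence-based dose-response confirmation assay measuring inhibition of ATG4B activity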
# T4 sequence (Q9Y4P1 whole entry): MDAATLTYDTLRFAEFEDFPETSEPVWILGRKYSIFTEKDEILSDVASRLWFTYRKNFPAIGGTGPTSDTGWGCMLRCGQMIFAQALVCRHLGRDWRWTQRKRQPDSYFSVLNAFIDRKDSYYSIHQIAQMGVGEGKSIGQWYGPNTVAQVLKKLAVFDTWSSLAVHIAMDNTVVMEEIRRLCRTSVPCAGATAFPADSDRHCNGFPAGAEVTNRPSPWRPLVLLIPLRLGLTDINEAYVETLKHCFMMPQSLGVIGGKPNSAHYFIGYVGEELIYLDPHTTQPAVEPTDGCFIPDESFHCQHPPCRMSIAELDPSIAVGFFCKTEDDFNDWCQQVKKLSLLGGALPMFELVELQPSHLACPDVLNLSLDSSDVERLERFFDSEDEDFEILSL
# [5] = cytotoxicity in KRAS-transformed pancreatic duct cells, primary screen, cell-based, fluorescence, HTS (AID 431); format: functional; conditions: Homo sapiens;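 note: cell line used: HPDE-C7K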
# [6] = biological target: T2, Tyrosine-protein phosphatase non-receptor type 7; assay: redox-dependent HePTP inhibition, mechanism study, biochemical, fluorescence (AID 2068); format: functional
# [7] = biological target: Glyceraldehyde-3-phosphate dehydrogenase (Homo sapiens, UniProt P04406)
# [8] = cytotoxicity in HPDE-C7 cells, cell-based, fluorescence, HTS (AID 430); format: functional; conditions: Homo sapiens
# [9] = biological target: T3, Dual specificity protein phosphatase 6
# Large T antigen = Large T antigen (Simian virus 40, UniProt P03070); format: functional, Betapolyomavirus macacae;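 note: Confirmatory-stage PubChem screen for compounds that inhibit SV40 T antigen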
# Coagulation factor XII = biological target: T5, Coagulation factor XII (Homo sapiens, UniProt P00748); assay: Factor XIIa Dose Response Confirmation from Single Well HTS. [Related pubchem assays (depositor defined):AID701]; format: functional
# T5 sequence (P00748 whole entry): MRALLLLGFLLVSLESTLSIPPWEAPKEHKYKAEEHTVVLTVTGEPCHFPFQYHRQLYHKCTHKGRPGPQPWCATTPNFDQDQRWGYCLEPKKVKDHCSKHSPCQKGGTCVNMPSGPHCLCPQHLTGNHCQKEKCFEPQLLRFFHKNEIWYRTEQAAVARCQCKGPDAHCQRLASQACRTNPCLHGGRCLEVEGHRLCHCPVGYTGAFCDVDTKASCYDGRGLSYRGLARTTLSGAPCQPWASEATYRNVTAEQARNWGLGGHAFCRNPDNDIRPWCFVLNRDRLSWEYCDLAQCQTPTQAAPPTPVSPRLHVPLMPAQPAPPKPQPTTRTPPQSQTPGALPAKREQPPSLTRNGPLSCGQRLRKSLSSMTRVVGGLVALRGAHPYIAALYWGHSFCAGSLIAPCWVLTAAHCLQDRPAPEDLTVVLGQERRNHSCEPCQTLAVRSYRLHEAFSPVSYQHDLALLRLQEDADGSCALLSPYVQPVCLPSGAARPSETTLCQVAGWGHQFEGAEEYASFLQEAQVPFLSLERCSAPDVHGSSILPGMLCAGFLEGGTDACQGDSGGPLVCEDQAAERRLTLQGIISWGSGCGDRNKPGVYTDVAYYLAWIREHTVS
# T-cell = assay: inhibitors of CD8+ T cell–vesicle binding, dose response, mouse 2C CD8+ T cells, flow cytometry (AID 485284); format: functional
# Ion channel NompC = Ion channel NompC (Danio rerio, UniProt Q7T1G6); assay: Dose response cell-based high-throughput screening assay for agonists of the transient receptor potential channel N1 (TRPN1). [Related pubchem assays (depositor defined):AID1424, AID1448]; format: functional
# Mucolipin-3 = biological target: T6, Mucolipin-3 (Homo sapiens, UniProt Q8TDD5); assay: Fluorescence counterscreen assay for […] agonists: dose response cell-based high-throughput screening assay to identify agonists of the transient receptor potential channel ML3 (TRPML3). [Related pubchem assays: 1424, 1448 ]; format: functional
# T6 sequence (Q8TDD5 whole entry): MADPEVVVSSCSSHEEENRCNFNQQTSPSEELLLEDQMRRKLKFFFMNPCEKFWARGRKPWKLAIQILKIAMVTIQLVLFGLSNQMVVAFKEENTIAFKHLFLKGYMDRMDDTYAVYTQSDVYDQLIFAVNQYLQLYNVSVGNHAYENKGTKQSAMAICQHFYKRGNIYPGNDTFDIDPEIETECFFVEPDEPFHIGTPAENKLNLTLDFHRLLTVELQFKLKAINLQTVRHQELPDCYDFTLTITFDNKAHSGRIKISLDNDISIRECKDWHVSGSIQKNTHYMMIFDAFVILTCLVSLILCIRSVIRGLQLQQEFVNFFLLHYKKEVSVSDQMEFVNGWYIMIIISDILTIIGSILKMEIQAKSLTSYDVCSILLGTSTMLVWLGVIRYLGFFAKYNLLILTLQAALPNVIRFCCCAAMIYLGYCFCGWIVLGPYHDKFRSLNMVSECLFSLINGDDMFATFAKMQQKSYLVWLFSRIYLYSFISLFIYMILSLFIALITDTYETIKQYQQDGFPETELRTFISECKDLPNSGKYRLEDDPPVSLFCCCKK
# [10] = biological target: T7, Heat shock factor protein 1 (Mus musculus, UniProt P38532); assay: HSF1 potentiators in luciferase reporter cells, confirmation, cell-based, NIH3T3, luminescence, dose retest (AID 435004); format: functional;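 note: stress induced by proteasome inhibitor MG132 added 30 min after compound; luciferase reporter driven by HSF1 response element in NIH3T3 cells; actives raise luminescence as potentiators of the MG132 stress response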
# T7 sequence (P38532 whole entry): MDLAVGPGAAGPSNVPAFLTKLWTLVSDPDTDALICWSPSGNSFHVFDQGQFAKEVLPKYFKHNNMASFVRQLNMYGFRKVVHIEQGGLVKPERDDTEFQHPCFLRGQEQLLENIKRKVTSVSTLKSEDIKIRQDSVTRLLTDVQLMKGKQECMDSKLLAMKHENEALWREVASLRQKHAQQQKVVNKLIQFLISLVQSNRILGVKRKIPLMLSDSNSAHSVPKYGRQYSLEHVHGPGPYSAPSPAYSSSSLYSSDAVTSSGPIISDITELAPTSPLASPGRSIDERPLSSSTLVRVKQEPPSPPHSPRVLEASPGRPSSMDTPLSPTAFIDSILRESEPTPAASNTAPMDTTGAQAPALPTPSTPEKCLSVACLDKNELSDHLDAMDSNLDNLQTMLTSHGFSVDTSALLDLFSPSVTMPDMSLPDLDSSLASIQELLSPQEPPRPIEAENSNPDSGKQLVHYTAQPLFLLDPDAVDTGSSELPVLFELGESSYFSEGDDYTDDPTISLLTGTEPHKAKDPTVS
# [11] = biological target: UDP-galactopyranose mutase (Mycobacterium tuberculosis, UniProt P9WIQ1); assay: Inhibitors of Mycobacterium tuberculosis UDP-galactopyranose mutase (UGM) enzyme Measured in Biochemical System Using Plate Reader - 2105-02_Inhibitor_Dose_CherryPick_Activity. [Related pubchem assays (depositor defined):AID504439]
# cells = format: functional
# BJ = assay: cytotoxicity toward Ras-transformed BJeLR fibroblasts, dose response, cell-based, alamar blue fluorescence, cherrypicked samples (AID 2631); format: functional; conditions: Homo sapiens;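 note: confirmatory dose-response assay in RAS-dependent BJ fibroblasts engineered with TERT, LT and ST, with cytotoxicity read by fluorescence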
# Chain of Hexokinase-1 (P19367 whole entry): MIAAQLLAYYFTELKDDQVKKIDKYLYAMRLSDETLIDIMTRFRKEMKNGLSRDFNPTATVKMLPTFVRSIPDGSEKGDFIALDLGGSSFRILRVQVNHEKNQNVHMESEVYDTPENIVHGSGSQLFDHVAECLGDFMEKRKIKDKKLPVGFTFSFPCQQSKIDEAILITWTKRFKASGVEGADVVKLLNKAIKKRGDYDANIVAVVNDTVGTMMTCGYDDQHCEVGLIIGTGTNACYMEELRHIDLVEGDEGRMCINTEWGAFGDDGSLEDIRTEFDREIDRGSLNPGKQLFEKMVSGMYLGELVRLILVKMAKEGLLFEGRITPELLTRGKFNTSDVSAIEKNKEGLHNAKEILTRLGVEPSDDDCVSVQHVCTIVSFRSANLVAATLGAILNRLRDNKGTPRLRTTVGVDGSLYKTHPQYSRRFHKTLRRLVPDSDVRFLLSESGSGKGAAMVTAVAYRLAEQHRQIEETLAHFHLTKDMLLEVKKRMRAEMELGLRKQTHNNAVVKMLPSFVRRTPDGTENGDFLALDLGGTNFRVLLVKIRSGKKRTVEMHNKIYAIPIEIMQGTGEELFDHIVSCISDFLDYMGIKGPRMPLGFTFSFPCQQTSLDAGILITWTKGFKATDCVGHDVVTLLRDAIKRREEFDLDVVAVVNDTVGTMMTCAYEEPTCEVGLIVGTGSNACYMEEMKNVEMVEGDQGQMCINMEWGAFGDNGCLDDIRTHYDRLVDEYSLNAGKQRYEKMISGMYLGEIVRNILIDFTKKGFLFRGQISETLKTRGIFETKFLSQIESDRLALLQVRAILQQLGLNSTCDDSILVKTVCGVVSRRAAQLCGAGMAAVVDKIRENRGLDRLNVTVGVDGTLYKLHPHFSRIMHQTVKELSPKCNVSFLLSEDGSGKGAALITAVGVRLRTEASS
# Chain of Ion channel NompC (Q7T1G6 whole entry): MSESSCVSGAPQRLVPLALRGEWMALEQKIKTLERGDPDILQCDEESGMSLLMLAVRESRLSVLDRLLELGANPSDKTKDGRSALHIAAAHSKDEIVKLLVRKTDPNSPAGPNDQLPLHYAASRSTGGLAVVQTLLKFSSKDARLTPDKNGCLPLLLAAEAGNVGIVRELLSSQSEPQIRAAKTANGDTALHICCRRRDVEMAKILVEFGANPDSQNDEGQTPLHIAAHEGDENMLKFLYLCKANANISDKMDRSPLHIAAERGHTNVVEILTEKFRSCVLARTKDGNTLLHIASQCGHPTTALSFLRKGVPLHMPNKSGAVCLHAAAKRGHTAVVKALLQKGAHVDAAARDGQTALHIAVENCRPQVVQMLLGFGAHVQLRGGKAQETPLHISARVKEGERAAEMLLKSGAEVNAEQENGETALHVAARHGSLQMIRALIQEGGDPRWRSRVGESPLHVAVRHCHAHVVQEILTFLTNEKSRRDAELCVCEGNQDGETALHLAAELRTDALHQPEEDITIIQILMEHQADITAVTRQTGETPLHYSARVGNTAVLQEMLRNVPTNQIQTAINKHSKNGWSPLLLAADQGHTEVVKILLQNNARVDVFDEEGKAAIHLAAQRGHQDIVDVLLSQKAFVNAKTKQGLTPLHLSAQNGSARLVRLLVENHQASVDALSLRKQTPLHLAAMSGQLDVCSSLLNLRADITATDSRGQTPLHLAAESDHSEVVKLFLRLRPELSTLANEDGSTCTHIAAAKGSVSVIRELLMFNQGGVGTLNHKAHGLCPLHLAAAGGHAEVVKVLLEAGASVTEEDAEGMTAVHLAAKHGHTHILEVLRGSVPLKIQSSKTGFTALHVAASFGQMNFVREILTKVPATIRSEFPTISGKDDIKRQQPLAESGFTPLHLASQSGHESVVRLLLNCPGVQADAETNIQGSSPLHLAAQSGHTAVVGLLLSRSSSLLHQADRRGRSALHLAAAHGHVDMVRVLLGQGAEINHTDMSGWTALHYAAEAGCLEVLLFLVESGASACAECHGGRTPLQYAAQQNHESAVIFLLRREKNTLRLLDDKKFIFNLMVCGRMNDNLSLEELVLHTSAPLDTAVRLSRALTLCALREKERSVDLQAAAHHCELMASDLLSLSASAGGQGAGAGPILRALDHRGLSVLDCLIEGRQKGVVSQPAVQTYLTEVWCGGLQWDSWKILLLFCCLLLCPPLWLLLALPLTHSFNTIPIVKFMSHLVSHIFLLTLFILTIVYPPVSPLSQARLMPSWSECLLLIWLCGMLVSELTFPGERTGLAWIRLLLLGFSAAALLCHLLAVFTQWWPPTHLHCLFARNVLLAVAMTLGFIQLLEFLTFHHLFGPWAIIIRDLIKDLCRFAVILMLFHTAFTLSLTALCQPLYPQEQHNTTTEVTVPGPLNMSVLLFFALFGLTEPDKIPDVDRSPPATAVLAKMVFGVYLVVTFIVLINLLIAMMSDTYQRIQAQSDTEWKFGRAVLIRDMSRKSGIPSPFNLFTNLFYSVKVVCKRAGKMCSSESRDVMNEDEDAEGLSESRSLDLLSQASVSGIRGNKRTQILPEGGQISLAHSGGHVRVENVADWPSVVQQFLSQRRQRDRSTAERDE
# Chain of Large T antigen (P03070 whole entry): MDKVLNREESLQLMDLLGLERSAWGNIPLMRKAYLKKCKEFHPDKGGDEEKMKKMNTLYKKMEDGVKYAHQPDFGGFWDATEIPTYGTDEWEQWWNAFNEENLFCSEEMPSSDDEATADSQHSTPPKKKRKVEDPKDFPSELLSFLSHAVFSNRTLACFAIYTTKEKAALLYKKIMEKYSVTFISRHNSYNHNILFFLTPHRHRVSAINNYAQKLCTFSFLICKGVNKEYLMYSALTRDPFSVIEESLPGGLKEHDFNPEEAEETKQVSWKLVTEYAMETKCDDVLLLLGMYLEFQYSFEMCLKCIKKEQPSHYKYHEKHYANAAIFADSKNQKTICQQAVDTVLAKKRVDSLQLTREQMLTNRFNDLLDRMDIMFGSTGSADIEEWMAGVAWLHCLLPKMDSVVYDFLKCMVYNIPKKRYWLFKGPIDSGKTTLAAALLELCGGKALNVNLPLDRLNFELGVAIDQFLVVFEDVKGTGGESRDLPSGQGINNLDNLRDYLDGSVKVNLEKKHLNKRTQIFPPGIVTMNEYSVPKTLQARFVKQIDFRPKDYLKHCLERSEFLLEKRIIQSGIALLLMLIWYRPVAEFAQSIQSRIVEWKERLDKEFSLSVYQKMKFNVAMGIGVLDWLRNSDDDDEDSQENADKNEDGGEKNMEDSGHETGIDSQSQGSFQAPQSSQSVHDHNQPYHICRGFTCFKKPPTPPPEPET
# Chain of Ephrin type-A receptor 4 (Q03137 whole entry): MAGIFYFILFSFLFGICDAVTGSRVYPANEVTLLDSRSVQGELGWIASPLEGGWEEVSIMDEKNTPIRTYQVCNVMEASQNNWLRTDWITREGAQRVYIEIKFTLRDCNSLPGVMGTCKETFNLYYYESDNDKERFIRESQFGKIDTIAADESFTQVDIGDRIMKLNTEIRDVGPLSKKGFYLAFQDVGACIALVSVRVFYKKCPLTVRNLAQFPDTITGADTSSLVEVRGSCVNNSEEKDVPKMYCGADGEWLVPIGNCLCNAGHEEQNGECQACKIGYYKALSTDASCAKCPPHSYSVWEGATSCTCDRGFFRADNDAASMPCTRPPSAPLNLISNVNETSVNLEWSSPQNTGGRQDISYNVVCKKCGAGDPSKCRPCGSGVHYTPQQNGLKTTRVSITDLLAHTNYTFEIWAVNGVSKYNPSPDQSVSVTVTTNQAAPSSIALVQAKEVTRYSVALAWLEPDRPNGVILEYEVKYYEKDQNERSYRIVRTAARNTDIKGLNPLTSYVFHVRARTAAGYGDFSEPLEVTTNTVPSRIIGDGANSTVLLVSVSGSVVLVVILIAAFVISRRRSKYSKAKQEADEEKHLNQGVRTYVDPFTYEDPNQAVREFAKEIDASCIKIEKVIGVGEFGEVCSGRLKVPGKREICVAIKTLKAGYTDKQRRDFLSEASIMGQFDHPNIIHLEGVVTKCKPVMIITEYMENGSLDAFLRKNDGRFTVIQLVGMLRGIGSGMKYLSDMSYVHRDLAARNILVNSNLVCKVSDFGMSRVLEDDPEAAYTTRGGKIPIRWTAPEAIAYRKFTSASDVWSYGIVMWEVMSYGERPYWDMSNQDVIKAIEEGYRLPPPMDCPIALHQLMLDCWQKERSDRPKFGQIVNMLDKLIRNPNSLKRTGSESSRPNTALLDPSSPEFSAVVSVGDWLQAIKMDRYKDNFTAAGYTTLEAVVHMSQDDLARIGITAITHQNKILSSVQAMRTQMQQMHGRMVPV
# Chain of Dual specificity protein phosphatase 3 (P51452 whole entry): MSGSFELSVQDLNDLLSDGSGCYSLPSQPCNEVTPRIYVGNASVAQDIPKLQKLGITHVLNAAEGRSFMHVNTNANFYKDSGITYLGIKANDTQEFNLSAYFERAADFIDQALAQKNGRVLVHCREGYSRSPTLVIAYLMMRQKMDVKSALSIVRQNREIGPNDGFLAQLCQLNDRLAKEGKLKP
# Chain of Glyceraldehyde-3-phosphate dehydrogenase (P04406 whole entry): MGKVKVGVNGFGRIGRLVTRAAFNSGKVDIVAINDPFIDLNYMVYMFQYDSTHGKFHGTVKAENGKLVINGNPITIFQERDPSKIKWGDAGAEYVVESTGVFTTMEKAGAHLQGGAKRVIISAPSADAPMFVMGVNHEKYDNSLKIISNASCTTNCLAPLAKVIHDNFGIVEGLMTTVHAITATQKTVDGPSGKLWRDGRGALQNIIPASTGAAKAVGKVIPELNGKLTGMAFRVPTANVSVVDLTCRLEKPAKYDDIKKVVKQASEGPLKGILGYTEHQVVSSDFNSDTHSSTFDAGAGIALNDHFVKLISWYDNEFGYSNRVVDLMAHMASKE
# Chain of Phospholipase A2 (P04054 whole entry): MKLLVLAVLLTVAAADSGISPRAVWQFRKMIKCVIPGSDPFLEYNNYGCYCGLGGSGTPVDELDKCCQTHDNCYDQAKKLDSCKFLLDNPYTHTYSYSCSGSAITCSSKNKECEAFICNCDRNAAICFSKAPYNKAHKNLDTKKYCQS
compound,measurement,setting,value
O=C(Nc1ccc(N2CCCC2)cc1)c1cccc(-c2cc3ccccc3oc2=O)c1,EC50,Hexokinase-1,> 80 µM (inactive)
same,EC50,Hexokinase HKDC1,13.6 µM (active)
same,IC50,[1],> 80 µM (inactive)
Clc1ccccc1CSc1nnc(-c2ccco2)c(-c2ccco2)n1,IC50,Phospholipase A2,7.53 µM (active)
same,IC50,[2],19.7 µM (active)
same,IC50,[3],10.4 µM (active)
same,IC50,[4],24.2 µM (active)
same,IC50,Ephrin type-A receptor 4,2.46 µM (active)
same,IC50,Cysteine protease ATG4B,11.4 µM (active)
same,EC50,[5],15.4 µM (active)
same,IC50,[6],0.329 µM (active)
same,IC50,[7],> 100 µM (not active)
same,EC50,[8],15 µM (active)
same,IC50,[9],31.2 µM (active)
same,IC50,Large T antigen,54.4 µM (active)
COc1cc(OC)cc(-c2nnc(SCc3cccc(C(=O)O)c3)o2)c1,IC50,Coagulation factor XII,> 50 µM (inactive)
Cc1cccc(NC(=O)C2CCN(S(=O)(=O)c3c(C)nc(O)nc3O)CC2)c1,EC50,T-cell,8.65 µM (active)
Cc1cc2nc3c(=O)n(CCc4ccccc4)c(=O)[nH]c3nc2cc1N,EC50,Ion channel NompC,3.55 µM (active)
same,EC50,Mucolipin-3,6.23 µM (active)
same,EC50,[10],> 260 µM (inactive)
same,AC50,[11],2.29 µM (active)
CCOC(=O)Cn1c2ccc(F)cc2c2nc(C)sc21,EC50,Hexokinase-1,56.2 µM (inactive)
same,IC50,cells,14.2 µM (active)
same,EC50,Hexokinase HKDC1,59.1 µM (inactive)
CCC1(C)NC(=O)N(CC(=O)N2N=C(c3ccccc3)CC2c2ccc(OC)cc2)C1=O (centres undefined),EC50,T-cell,16.1 µM (active)
COc1ccc2[nH]c3c(NCCC4=CCCCC4)ncnc3c2c1,EC50,BJ,> 133 µM (inactive)
same,EC50,Ion channel NompC,> 29.9 µM (inactive)
same,EC50,Mucolipin-3,> 29.9 µM (not active)
O=C(c1cn(-c2ccccc2)nc1-c1ccncc1)n1nnc2ccccc21,IC50,Coagulation factor XII,0.973 µM (active)
